From US8569316B2, “Pyrimido [5,4-D] pyrimidine derivatives for the inhibition of tyrosine kinases” (Boehringer Ingelheim International GmbH, priority 2009, dated 2013)

Target: B-Raf (V600E)-kinase (Homo sapiens (Human), UniProt P15056, V600E)
Assay: Kinase test B-Raf (V600E)
Format: biochemical
Details: 250 μM ATP, biotinylated MEK1 substrate
Protocol: In a dilution series 10 μL of test substance solution are placed in a multiwell plate. The dilution series is selected so that generally a range of concentrations of 2 μM to 0.128 nM or 0.017 nM is covered. If necessary the initial concentration of 2 μM is changed to 50 μM, 10 μM or 0.4 μM or 0.2857 μM and further dilution is carried out accordingly. The final concentration of DMSO is 5%. 10 μL of the B-Raf (V600E)-kinase solution are pipetted in (containing 0.5 ng B-Raf (V600E)-kinase in 20 mM Tris-HCl pH 7.5, 0.1 mM EDTA, 0.1 mM EGTA, 0.286 mM sodium orthovanadate, 10% glycerol, 1 mg/mL bovine serum albumin, 1 mM dithiothreitol) and the mixture is incubated for 1 h at RT under with shaking. The kinase reaction is started by the addition of 20 μL ATP solution [final concentration: 250 μM ATP, 30 mM Tris-HCl pH 7.5, 0.02% Brij, 0.2 mM sodium orthovanadate, 10 mM magnesium acetate, phosphatase cocktail (Sigma, #P2850, dilution recommended by the manufacturer), 0.1 mM EGTA] and 10 μL MEK1 solution [containing 50 ng biotinylated MEK1 (prepared from purified MEK1 according to standard procedure, e.g. with EZ-Link Sulpho-NHS-LC-Biotin reagent, Pierce, #21335) in 50 mM Hepes pH 7.5, 150 mM NaCl, 10% glycerol, 0.02% Brij-35, 0.2 mM PMSF, 0.2 mM benzamidine] and carried out for 60 min at RT with constant shaking. The reaction is stopped by the addition of 12 μL of a 100 mM EDTA solution and incubation is continued for a further 5 min. 55 μL of the reaction solution are transferred into a streptavidin-coated plate (e.g. Streptawell HighBond, Roche, #11989685001) and shaken gently for 1 h at RT, in order to bind biotinylated MEK1 to the plate. After elimination of the liquid the plate is washed five times with 200 μL of 1×PBS and 100 μL solution of primary antibody plus europium-labelled secondary antibody [Anti Phospho-MEK (Ser217/221), Cell Signaling, #9121 and Eu-N1 labeled goat-anti-rabbit antibody, Perkin Elmer, #AD0105], the primary antibody is diluted 1:2000 and the secondary antibody is diluted to 0.4-0.5 μg/mL in Delfia Assay Buffer (Perkin Elmer, #1244-111). After 1 h shaking at RT the solution is poured away and washed five times with 200 μL Delfia Wash Buffer (Perkin Elmer, #4010-0010/#1244-114). After the addition of 200 μL Enhancement Solution (Perkin Elmer, #4001-0010/#1244-105) the mixture is shaken for 10 min at RT and then measured in a Wallac Victor using the program “Delfia Time Resolved Fluorescence (Europium)”. IC50 values are obtained from these dosage-activity curves using a software program (GraphPadPrizm).

Chain of B-Raf (V600E)-kinase (P15056 whole entry V600E): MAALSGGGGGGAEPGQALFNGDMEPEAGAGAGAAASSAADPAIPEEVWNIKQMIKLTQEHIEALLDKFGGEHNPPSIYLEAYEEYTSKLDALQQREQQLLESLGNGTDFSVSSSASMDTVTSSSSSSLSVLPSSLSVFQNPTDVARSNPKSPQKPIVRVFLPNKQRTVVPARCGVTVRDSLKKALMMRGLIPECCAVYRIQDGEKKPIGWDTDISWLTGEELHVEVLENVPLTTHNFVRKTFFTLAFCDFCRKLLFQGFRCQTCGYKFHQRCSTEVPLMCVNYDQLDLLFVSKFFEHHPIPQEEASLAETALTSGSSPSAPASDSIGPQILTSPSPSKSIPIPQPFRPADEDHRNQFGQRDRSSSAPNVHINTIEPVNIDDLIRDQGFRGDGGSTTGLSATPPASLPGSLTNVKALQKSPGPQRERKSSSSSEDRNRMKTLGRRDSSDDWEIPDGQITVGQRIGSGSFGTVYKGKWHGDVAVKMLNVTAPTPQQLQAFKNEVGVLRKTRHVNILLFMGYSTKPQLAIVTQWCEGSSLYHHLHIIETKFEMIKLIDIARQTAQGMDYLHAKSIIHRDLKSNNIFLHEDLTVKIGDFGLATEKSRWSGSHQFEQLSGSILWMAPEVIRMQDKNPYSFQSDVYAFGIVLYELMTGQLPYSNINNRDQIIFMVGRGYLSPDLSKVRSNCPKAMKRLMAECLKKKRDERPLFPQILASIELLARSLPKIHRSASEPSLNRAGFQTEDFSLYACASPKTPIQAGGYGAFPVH

Row | SMILES | IC50
1 | Cc1ccc(NC(=O)c2cccc(C(C)(C)C#N)c2)cc1Nc1ncnc2ccc(N[C@H]3CCOC3)nc12 [IV-5] | 5 nM
2 | COc1ccc(NC(=O)c2ccc(C)c(Nc3ncnc4cnc(N5CCOCC5)cc34)c2)cc1C(F)(F)F [I-1] | 106 nM
3 | COCCN1CCN(c2ccc3ncnc(Nc4cc(C(=O)Nc5cc(C(C)(C)C)cc(NS(C)(=O)=O)c5OC)ccc4C)c3n2)CC1 [III-19] | 476 nM
4 | Cc1ccc(C(=O)Nc2cc(N3CCN(C)CC3)cc(C(F)(F)F)c2)cc1Nc1ncnc2ccc(N3CCOCC3)nc12 [III-7] | 4 nM
5 | Cc1ccc(NC(=O)c2cccc(C(C)(C)C#N)c2)cc1Nc1ncnc2ccc(N3CC[C@H](F)C3)nc12 [IV-4] | 11 nM
6 | COCCN1CCN(c2ccc3ncnc(Sc4cc(C(=O)Nc5cccc(C(C)(C)C#N)c5)ccc4C)c3n2)CC1 [III-52] | 261 nM
7 | COc1c(NC(=O)c2ccc(C)c(Nc3ncnc4ccc(C5CCN(CC6CC6)CC5)nc34)c2)cc(C(C)(C)C)cc1NS(C)(=O)=O [III-35] | 288 nM
8 | COc1c(NC(=O)c2ccc(C)c(Nc3ncnc4ccc(N5CC[C@@H](F)C5)nc34)c2)cc(C(C)(C)C)cc1NS(C)(=O)=O [III-22] | 25 nM
9 | Cc1ccc(C(=O)Nc2cc(C(C)(C)C)on2)cc1Nc1ncnc2ccc(N3CCN(CC4CCN(C)CC4)CC3)nc12 [III-12] | 12 nM
